Measurements reported in patent publication US7304171B2, “Compounds and methods for cytoprotection” (Migenix Corp., priority 2004, dated 2007).

Tested on: rd1 mutant mice retinas (retinal photoreceptors)
Assay: Murine rd1 retinal explant model for retinitis pigmentosa: photoreceptor cytoprotection in vitro
Assay type: cell-based, mouse
Conditions: 1 μM
Source text: Retinas were dissected at postnatal day 7 from rd1 mutant mice (Bowes et al., 1990 Nature 347:677; Frasson et al., 1999 Nat. Med. 5:1183), which carry a spontaneous cGMP phosphodiesterase mutation in retinal rod photoreceptors, leading to rapid and premature rod cell apoptosis in this animal model for the ophthalmic degenerative disease retinitis pigmentosa (RP); control retinas were from the background strain (C3H). Retinas were mounted flat on nitrocellulose membranes attached to culture dish inserts and maintained in serum-free R16 culture medium for 21 days, reflecting a stage corresponding to postnatal day 28 (Caffe et al., 2001 J. Chem. Neuroanat. 22:263). […] Slides containing the sections were coded and scored using light microscopy, by counting the rows of photoreceptors in the outer nuclear layer of the retina for five fields from each section. […] Typically, six sections from each preparation were scored, representing different cutting depths, and the collected averages from the six slides were averaged to yield an average value of remaining rows of retinal photoceptors per retina, which value was used for statistical analysis. Data were analyzed by Student's paired t-test; ratios were also calculated of treated:untreated retinas from each intra-animal pair and analyzed by Student's one-group t-test, with the population mean set to 1.0.

SMILES: CO/N=C1\CCC2C3CCc4cc(O)c(C56CC7CC(CC(C7)C5)C6)cc4C3CC[C@]12C (some centres unmarked) [compound 5]
- No. Rows Photoreceptors (rd1 retinal explant, 21 days of culture, n = 4, paired t-test p = 0.038 vs contralateral DMSO control (1.87 ± 0.11)): 2.11 ± 0.13
- Treated:Untreated (ratio of photoreceptor rows, treated:untreated retina of each intra-animal pair, 21 days, 1-group t-test p = 0.144): 1.10 ± 0.10
